# Measured values reported in patent publication US12454527B2, “Conjugate monomethyl auristatin E to obtain a composition for treatment of prostate cancer” (priority 2019, dated 2025).
# “And” between values parts separate entries of the source, which are not always exact repeats. Equal values may be shown once. Starred links: 1 amine or outer side, 2 acyl side, 3 side chain; linkers in the order of their positions; H or OH if unused. Non-standard residues stand in square brackets, D forms with d. Residues, ends and D or L forms follow the SMILES beside them. ξ: configuration not given here. *: point of attachment. GluureaLys(ε-3-ClBenzyl) = O=C(O)CC[C@H](NC(=O)N[C@@H](CCCCN(Cc1cccc(Cl)c1)*)C(=O)O)C(=O)O; Dolaproine = CO[C@@H]([C@@H]1CCCN1)[C@@H](C)C(=O)O; Dil = CC[C@H](C)[C@H](NC)[C@@H](CC(=O)O)OC; X1 = O=C(CCCc1cn(CCCN[*:1])nn1)[*:2]; PABC = O=C(OCc1ccc(N[*:1])cc1)[*:2]; X2 = C[C@@H](N*)[C@@H](O)c1ccccc1; Cit = NC(=O)NCCC[C@H](N)C(=O)O; Suc = O=C(CCC(=O)[*:2])[*:1]; NMeV = CN[C@H](C(=O)O)C(C)C; ξV = CC(C)C(N)C(=O)O; Ahx = NCCCCCC(=O)O
# What was measured:
# [1] = Chronic toxicity study, intravenous once every 3 weeks, rabbits; format: in vivo
# From the text: Chronic toxicity study of Conjugate (1) product on Rats and rabbits.
# • 1. Conjugate (I). • 2. Solubilizer Pluronic F127—in the amount, five-fold greater than the conjugate amount by weight. • 3. Diluent—Haemodes infusion solution. • 4. Dimethyl sulfoxide—in the amount of 5% of the prepared volume.
# A 1 00 white ° inbred mature male rats about 2 months old with a body weight of 190-210 g and 60 sexually mature male rabbits of the Soviet Chinchilla breed about 2 months old with a body weight of […] were involved in the experiment.
# The study design determined the intravenous administration of the test drugs once every 3 weeks for 3 months (a total of 4 injections) for the experiment of chronic toxicity determination. The local irritant effect of the products within intravenous administration will be studied together with the chronic toxicity study.
# Each animal received the intravenous injection of the test drug or the reference drug in a volume not exceeding the acceptable volume for a single injection of 2 mL for rats and 20 mL for rabbits. The products were replaced with a Pluronic solution with DMSO in Haemodes in the control group of animals. The duration of observation for laboratory animals was 4 weeks (intermediate stage).
# Apparent signs of intoxication were evaluated daily. During the study, integral indicators of animal health were recorded (see Tables 15. 16, 17).
# [2] = tested on: 22Rv1 prostate cancer s.c. xenografts; assay: Antineoplastic efficacy on 22Rv1 prostate cancer xenograft model (tumor growth inhibition); format: in vivo, mice; settings: for Tumor volume, V mean / TGI %: 22Rv1; for Tumor volume, V mean / TGI % / Tumor volume (individual tumors): 0.3 mg/kg i.p. x3; for TGI %: vs TGC; for Tumor volume (individual tumors): 22Rv1 s.c. xenograft, 0.3 mg/kg
# From the text: The evaluation of antineoplastic Conjugate (I) efficacy on xenograft model of prostate cancer.
# To study the drug efficacy the xenograft model was selected as a quite illustrative one for preclinical studies (Application of Prostate Cancer Models for Preclinical Study: Advantages and Limitations of Cell Lines, Patient-Derived Xenografts, and Three-Dimensional Culture of Patient-Derived Cells Takeshi Namekawa, Kazuhiro Kuniko Horie-Inoue, Satoshi Inoue Cells, 2019 January; 8(1), The criteria of antineoplastic activity were tumor growth inhibition (TGI) (Experimental assessment of antineoplastic agents in the USSR and USA/IEd. Ed. Sophyina Z. P., Syrkin A. B., Goldin F., Klein I.//J.: Medicine, 1980) in treated animals (Pon) compared with control (Pk), expressed as a percentage: […]
# The treatment in all groups was started when tumor nodes were appeared.
# Tumor growth was times at the end of study (Table 1).
# Lymphoid Leukosis P388 = assay: Antineoplastic activity on lymphoid leukosis P388 model (lifespan/survival); format: in vivo, male mice BDF1; settings: 0.5 and 1 mg/kg
# Procedure: Lymphoid Leukosis P388 (male mice BDF1)—observation was held for 30 days since the first product administration (the product administration was started 24 hours after revaccination) and it was administered 3 times intraperitoneally in a day.
# • 1. Group 1—tumor growth control (TGC) • 2. Group 2—placebo (diluent) • 3. Group 3—intraperitoneal Conjugate (I) administration in a dose of 0.5 mg/kg 3 times; • 4. Group 4—intraperitoneal Conjugate (I) administration in a dose of 1.0 mg/kg 3 times:
# Experimental animals of control group (TGC) were administered with 0.9% saline, the placebo group was injected with the diluent (DMSO+Haemodes) of similar volume. The antineoplastic activity was determined according to mice lifespan.
# [3] = Assessment of the tolerability in the 22Rv1 xenograft study (body weight, survival, general health); format: in vivo, mice; settings: 0.3 mg/kg; for Body weight of mice (M ± m): in g (unit assumed)
# Melanoma B16 = assay: Antineoplastic activity on melanoma B16 model (tumor growth inhibition); format: in vivo; settings: for Tumor volume, Mean / TGI %: B16, 1.0 mg/kg; for TGI %: vs TGC; for Tumor volume (individual tumors): s.c. B16 melanoma, 1.0 mg/kg i.p. x3, 1 mg/kg
# Procedure: Melanoma B16-30 days after the first product administration (the product administration was started 48 hours after revaccination) and it was administered 3 times intraperitoneally in 5 days,
# • 1. Group 1—diluent (placebo) • 2. Group 2—intraperitoneal Conjugate (I) administration in a dose of 1 mg/kg 3 times:
# Experimental animals of control group (TGC) were administered with the diluent (DMSO+Haemodes) of similar Volume (placebo product). The measurement of tumor node was performed three times (on. Day 1, 4 and 8 after treatment completion), The antineoplastic activity was determined according to the standard parameters: tumor growth inhibition TGI (>50%). The survival observation was continued up to 30 days (Table 3).
# [4] = male rabbits, group 7, 81 μg/kg intravenously 1 time in 3 weeks
# [5] = male rabbits, group 8, 102 μg/kg intravenously 1 time in 3 weeks
compound,measurement,setting,value
CC[C@H](C)[C@@H]([C@@H](CC(=O)N1CCC[C@H]1[C@H](OC)[C@@H](C)C(=O)N[C@H](C)[C@@H](O)c1ccccc1)OC)N(C)C(=O)[C@@H](NC(=O)[C@H](C(C)C)N(C)C(=O)OCc1ccc(NC(=O)[C@H](CCCNC(N)=O)NC(=O)C(NC(=O)CCCc2cn(CCCNC(=O)[C@H](Cc3ccc(O)cc3)NC(=O)[C@H](Cc3ccccc3)NC(=O)CCC(=O)NCCCCCC(=O)N(CCCC[C@H](NC(=O)N[C@@H](CCC(=O)O)C(=O)O)C(=O)O)Cc3cccc(Cl)c3)nn2)C(C)C)cc1)C(C)C (stereo partly drawn) [Conjugate (I)] ({GluureaLys(ε-3-ClBenzyl)-Ahx-Suc}-FY[X1][ξV][Cit][PABC][NMeV]V[Dil][Dolaproine]-X2),Necropsy,[1]; [4],None
same,Signs of intoxication,[1]; [4],No signs of intoxication
same,Necropsy,[1]; [5],None
same,Signs of intoxication,[1]; [5],No signs of intoxication
same,Necropsy,"[1]; male rabbits, group 9, 122 μg/kg intravenously 1 time in 3 weeks",None
same,Signs of intoxication: the intake of food and water,"[1]; male rabbits, group 9, 122 μg/kg, after administration",decreased.
same,Main observed toxic effect,"[1]; rabbits, chronic",decreased body weight gain
same,Chronic toxicity (overall),"[1]; rabbits, i.v. once every 3 weeks, intermediate stage 4 weeks",moderate toxicity
same,"Tumor volume, V mean",[2]; day 1,28 mm^3
same,TGI %,[2]; day 1 after treatment completion,83%
same,"Tumor volume, V mean",[2]; day 4,83 mm^3
same,TGI %,[2]; day 4,85%
same,"Tumor volume, V mean",[2]; day 8,341 mm^3
same,TGI %,[2]; day 8,70%
same,Tumor volume (individual tumors),[2]; day 1 after treatment,22 mm^3 and 17 mm^3 (2×) and 45 mm^3 and 14 mm^3 and 19 mm^3 and 30 mm^3 (2×) and 32 mm^3 and 31 mm^3 and 51 mm^3 and 34 mm^3 and 18 mm^3 and 40 mm^3
same,Tumor volume (individual tumors),[2]; day 4 after treatment,72 mm^3 (2×) and 42 mm^3 and 75 mm^3 and 38 mm^3 and 78 mm^3 and 173 mm^3 and 63 mm^3 and 108 mm^3 and 115 mm^3 and 65 mm^3 and 74 mm^3 and 102 mm^3 and 81 mm^3
same,Tumor volume (individual tumors),[2]; day 8 after treatment,346 mm^3 and 111 mm^3 and 369 mm^3 and 186 mm^3 and 463 mm^3 and 597 mm^3 and 570 mm^3 and 314 mm^3 and 853 mm^3 and 177 mm^3 and 247 mm^3 and 349 mm^3 and 94 mm^3 and 96 mm^3
same,Dose achieving effective tumor growth inhibition (TGI),"[2]; mouse, in vivo",approximately 0.3 mg/kg
same,Antineoplastic activity,Lymphoid Leukosis P388,presence of the antineoplastic activity
same,Body weight of mice (M ± m),[3]; day 0 after treatment initiated,22.2 ± 0.53
same,Body weight of mice (M ± m),[3]; day 2,21.2 ± 0.36
same,Body weight of mice (M ± m),[3]; day 4,18.0 ± 0.48
same,Body weight of mice (M ± m),[3]; day 6,19.2 ± 0.35
same,Body weight of mice (M ± m),[3]; day 8,19.4 ± 0.4
same,Death cases,[3]; mice,no death cases
same,Survival,"[3]; mice, whole experiment",100%
same,General health and mice behavior,[3]; within and after intake,satisfactory without any pathologic changes and gastrointestinal and any other toxicity
same,"Tumor volume, Mean",Melanoma B16; day 1,66 mm^3
same,TGI %,Melanoma B16; day 1,75%
same,"Tumor volume, Mean",Melanoma B16; day 4,433 mm^3
same,TGI %,Melanoma B16; day 4,62%
same,"Tumor volume, Mean",Melanoma B16; day 8,898 mm^3
same,TGI %,Melanoma B16; day 8,61%
same,Tumor volume (individual tumors),Melanoma B16; day 1 after treatment,135 mm^3 and 72 mm^3 and 64 mm^3 (2×) and 48 mm^3 and 90 mm^3 and 36 mm^3 and 16 mm^3
same,Tumor volume (individual tumors),Melanoma B16; day 4,768 mm^3 and 364 mm^3 and 476 mm^3 and 220 mm^3 and 544 mm^3 and 525 mm^3 and 120 mm^3 and 448 mm^3
same,Tumor volume (individual tumors),Melanoma B16; day 8,"1,030 mm^3 and 855 mm^3 (2×) and 1,045 mm^3 and 675 mm^3 and 1,144 mm^3 and 972 mm^3 and 560 mm^3"
